Patent US20040029928A1, “Novel propenohydroxamic acid derivatives” (priority 2000, published 2004)

What was measured:
[1] = biological target: T1, TACE (crude extracted protein from membrane fraction of THP-1 cells) (Homo sapiens, UniProt P78536); assay: In vitro TACE inhibitory activity (fluorogenic peptide substrate); assay type: biochemical; settings: crude TACE 10 μg/mL, substrate 20 μM, room temperature, at least 4 hours
T1 construct: The supernatant was collected, which was provided for use as a TACE crude extract; endogenous in cells; host or cells: THP-1 cells stimulated with LPS, silica and hydroxyurea; membrane fraction solubilised with 1% Triton X-100
Description: Test 1 (In Vitro TACE Inhibitory Activity)
(1) Crude Extraction of TACE from THP-1 Cell Membrane
To THP-1 cells (cell density: 2×10^6/mL) suspended in RPMI 1640 medium containing 1% FBS were added LPS (E. coli 055:B55, final concentration: 1 pg/mL), silica (0.014 μm, final concentration: 50 μg/mL) and hydroxyurea (final concenration: 2 mM), followed by cultivation at 37° C. for 16 hours under 5%-CO2 conditions. The resulting cells were then washed once with RPMI 1640 medium free of FBS. The cells were suspended in 3 times the pellet volume of Solution A (10 mM sodium phosphate (pH 7.4), 1 mM MgCl2, 30 mM NaCl, 0.02% NaN3, 5 μM PMSF (phenyl methyl sulfonyl fluoride)). The cells were ground by a Polytron homogenizer (5 sec×5 times, ice cooling for 1 to 2 minutes each time). The homogenate solution was stacked over 41% sucrose-Solution A, followed by centrifugation (150,000 g×1 hour). After centrifugation, the intermediate layer was collected and diluted with 4 volumes of Solution A, followed by centrifugation (150,000 g×20 min). A sufficient amount of a solubilizing solution (1%-Triton X-100-A solution) was added (protein concentration: 1 mg/mL) and the mixture was stirred (4° C.×1 hour). Stirring was followed by centrifugation (100,000 g×30 min, 4° C.). The supernatant was collected, which was provided for use as a TACE crude extract.
(2) Measurement of TACE Inhibitory Activity
TACE (crude extracted protein from membrane fraction of THP-1 cells, final concentration: 10 μg/mL), each of test compounds (DMSO final concentration: 1%) shown in Table 1 and an incubate solution (50 mM Tris-HCl (pH 7.4), 5 mM CaCl2, 0.002% NaN3, 0.002% Brij 35) was added to a 96-well black plate. After pre-incubation at room temperature for 30 minutes, a substrate (N-methylanthranilyl-LAQAVRSK(DNP)rr-NH2: product of PEPTIDE INSTITUTE, INC., final concentration: 20 μM) was added, followed by incubation at room temperature for at least 4 hours. The fluorescence intensity was measured using POLAR STAR (Ex: 340 nm, Em: 430 nm) and from it, TACE inhibitory activity (IC50 value) was calculated.

MMP-1 = biological target: T2, MMP-1 (Homo sapiens, UniProt P03956); assay: Measurement of MMP-1 inhibitory activity; assay type: biochemical; settings: MMP-1 (Cosmo Bio), fluorogenic substrate
T2 construct: purchased Cosmo Bio Co
T2 sequence (P03956 100-469): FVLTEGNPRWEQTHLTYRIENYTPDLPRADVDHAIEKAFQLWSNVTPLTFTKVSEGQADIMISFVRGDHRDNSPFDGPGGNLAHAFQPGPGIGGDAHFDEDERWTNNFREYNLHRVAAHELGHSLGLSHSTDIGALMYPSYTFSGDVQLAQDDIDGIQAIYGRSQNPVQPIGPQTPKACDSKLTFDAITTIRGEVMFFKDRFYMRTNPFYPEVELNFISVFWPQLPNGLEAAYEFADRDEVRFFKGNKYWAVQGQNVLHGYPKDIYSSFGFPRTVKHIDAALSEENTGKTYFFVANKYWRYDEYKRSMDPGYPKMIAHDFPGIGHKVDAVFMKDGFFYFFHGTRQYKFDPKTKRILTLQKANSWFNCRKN
Description: Test 2 (Measurement of MMP-1 Inhibitory Activity)
MMP-1 inhibitory activity (IC50 value) was measured in accordance with the above-described measuring method of TACE inhibitory activity by using MMP-1 (product of Cosmo Bio Co.) and, as a substrate, 7-methoxycoumarin-4-yl-acetyl-PLGL-[N^3-(2,4-dinitrophenyl)2,3-diaminopropionyl]-AR—NH2 (product of Peptide Institute Inc.). The fluorescence intensity was measured using POLAR STAR (Ex: 340 nm, Em: 405 nm).

[2] = system: secretion of TNF-α, THP-1 cells; assay: Inhibitory activity against secretion of TNF-α in LPS-stimulated THP-1 cells (ELISA); assay type: cell-based; settings: Homo sapiens, LPS 100 ng/mL, 37° C., 4 hours, ELISA of supernatant
Description: Test 3 (Measurement of Inhibitory Activity Against on of TNF-α)
To THP-1 cells (5×10^5 mL) suspended in RPMI 1640 medium containing 10% FBS were added LPS (100 ng/mL) and a medicament of various concentrations (DMSO final concentration: 0.1%), followed by incubation at 37° C. for 4 hours under 5%-CO2 conditions. The TNF-α in the cultured supernatant was analyzed by ELISA, whereby inhibitory activity (IC50) against secretion of TNF-α was calculated.

T1 sequence (P78536 215-824): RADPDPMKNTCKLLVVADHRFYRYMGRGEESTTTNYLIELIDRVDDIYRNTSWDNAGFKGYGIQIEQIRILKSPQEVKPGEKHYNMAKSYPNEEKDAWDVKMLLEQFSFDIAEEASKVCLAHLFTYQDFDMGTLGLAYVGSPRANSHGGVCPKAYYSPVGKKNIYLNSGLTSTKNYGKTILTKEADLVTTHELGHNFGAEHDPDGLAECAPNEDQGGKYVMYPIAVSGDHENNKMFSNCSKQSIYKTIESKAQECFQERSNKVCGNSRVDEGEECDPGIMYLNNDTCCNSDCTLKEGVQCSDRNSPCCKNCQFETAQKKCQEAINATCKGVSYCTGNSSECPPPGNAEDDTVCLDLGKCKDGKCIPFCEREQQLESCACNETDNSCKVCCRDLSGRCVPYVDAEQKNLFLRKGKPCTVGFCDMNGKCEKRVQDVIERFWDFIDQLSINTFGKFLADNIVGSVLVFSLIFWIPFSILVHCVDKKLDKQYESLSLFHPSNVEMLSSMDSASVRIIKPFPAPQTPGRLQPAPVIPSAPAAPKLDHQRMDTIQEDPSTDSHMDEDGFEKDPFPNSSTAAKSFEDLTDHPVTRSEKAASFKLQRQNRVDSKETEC

Row | IC50 [1] | IC50 (MMP-1) | melting point | IC50 [2] | Compound
1 | 6.4 nM | > 10000 nM | 158 to 160 °C | 2800 nM | COc1ccc(S(=O)(=O)N(c2cccc(/C(=C\C(=O)NO)c3cccnc3)c2)C(C)C)cc1 [Compound 88, E-3-[3-[N-(4-Methoxybenzenesulfonyl)-N-isopropylamino]phenyl]-3-(3-pyridyl)propenohydroxamic acid]
2 | 8.6 nM | > 10000 nM |  |  | COc1ccc(S(=O)(=O)N(C)c2cccc(/C(=C\C(=O)NO)c3ccccc3)c2)cc1 [Compound 62, Z-3-[3-[N-(4-Methoxybenzenesulfonyl)-N-methylamino]phenyl]-3-phenylpropenohydroxamic Acid]
3 | 8.6 nM | > 10000 nM |  |  | COc1ccc(S(=O)(=O)N(c2cccc(/C(=C\C(=O)NO)c3ccccc3)c2)C(C)C)cc1 [Compound 63, Z-3-[3-[N-(4-Methoxybenzenesulfonyl)-N-isopropylamino]phenyl]-3-phenylpropenohydroxamic Acid]
4 | 7 nM | > 10000 nM |  | 4100 nM | COc1ccc(S(=O)(=O)N(C)c2cccc(/C(=C\C(=O)NO)c3cccnc3)c2)cc1 [Compound 89, E-3-[3-[N-(4-Methoxybenzenesulfonyl)-N-methylamino]phenyl]-3-(3-pyridyl)propenohydroxamic Acid]
5 | 13 nM | > 10000 nM |  | 5500 nM | COc1ccc(S(=O)(=O)N(c2cccc(/C(=C\C(=O)NO)c3ccc[n+]([O-])c3)c2)C(C)C)cc1 [Compound 93, E-3-[3-[N-(4-methoxybenzenesulfonyl)-N-isopropylamino]phenyl]-3-(3-pyridyl N-oxide)propenohydroxamic Acid]

Continued, compound first:

Row | Compound | IC50 [1] | IC50 (MMP-1) | melting point | IC50 [2]
6 | CN(c1cccc(/C(=C\C(=O)NO)c2ccccc2)c1)S(=O)(=O)c1cccc2cccnc12 [Compound 73, Z-3-[3-[N-(8-Quinolinesulfonyl)-N-methylamino]phenyl]-3-phenylpropenohydroxamic Acid] | 29 nM | > 10000 nM |  | 
7 | COc1ccc(S(=O)(=O)N(C)c2cccc(/C(=C\C(=O)NO)c3ccc[n+]([O-])c3)c2)cc1 [Compound 94, E-3-[3-[N-(4-Methoxybenzenesulfonyl)-N-methylamino]phenyl]-3-(3-pyridyl N-oxide)propenohydroxamic Acid] | 13 nM | > 10000 nM |  | 
8 | CN(c1cccc(/C(=C\C(=O)NO)c2ccccc2)c1)S(=O)(=O)c1ccc([N+](=O)[O-])cc1 [Compound 68, Z-3-[3-[N-(4-Nitrobenzenesulfonyl)-N-methylamino]phenyl]-3-phenylpropenohydroxamic Acid] | 35 nM | > 10000 nM | 153 to 155 °C | 
9 | COc1ccc(S(=O)(=O)N(C)c2cccc(/C(=C\C(=O)NO)c3ccccc3)c2)cc1OC [Compound 75, Z-3-[3-[N-(3,4-Dimethoxybenzenesulfonyl)-N-methylamino]phenyl]-3-phenylpropenohydroxamic acid] | 13 nM | > 10000 nM | 98 to 101 °C | 6400 nM
